Reference: US6528095B1, “Anti-atherosclerotic and anti-thrombotic agent and the use thereof” (Potchefstroom University for Christian Higher Education, priority 2000, dated 2003)
Like-named read-outs stand apart in the source and are kept apart here.

Legend:
blood lipids [1] = conditions: for % Inhibition / [Hydroperoxide]: in vitro; for [Hydroperoxide]: n = 5
[2] = Supplementation in human males: haemorheological variables (haematocrit, haemoglobin, plasma viscosity); type: in vivo; conditions: for VISCOSITY: plasma
Protocol: (§1) The respective effects of pectin and an acetate when administered to the colon of a mammal were determined during a first experiment. The experiment was conducted in the following two phases: [drawing 1]
(§2) Twenty human males participated in the experimentation and these subjects were not on any medication for any chronic diseases at the time, and also had no history of cardiovascular disease. All the subjects were at the time following a relatively high fibre, low fat diet. During the first phase ten subjects consumed a total of 15 grams of pectin per day in four aliquots, while the other ten consumed a total of 15 grams of placebo (starch) per day in four aliquots.
(§3) During the second phase, the first group consumed a total of 7.5 grams of calcium acetate per day in four aliquots and the second group consumed a total of 15 grams of pectin per day in four aliquots. The calcium acetate was administered in capsules which were coated with a protective coating comprising a resin known commercially as shellac. This protective coating is resistant to digestion and solution in the stomach and small intestines, is but not resistant to the enzymes of the organisms usually found in the colon, so that the calcium acetate was thus released in the colon.
(§4) Blood samples where taken from the subjects after each phase and a large number of variables where tested.

[3] = Pectin / calcium acetate supplementation in human males: body weight and BMI; type: in vivo
Description: The acetate supplement (phase 2), however, caused a decrease (from 88.16±12.35 kg to 83.09±10.80 kg) in body weight. Although this decrease may not be of statistical significance, it can be clinically significant in the cases of those subjects who lost weight.

[4] = as above; type: in vivo; remark: listed apart in the source
fibrin = fibrin (Homo sapiens, UniProt P02671+P02675+P02679); conditions: progressive increase in acetate, FIG. 2
Sequence of fibrin (P02671 36-629 limits assumed): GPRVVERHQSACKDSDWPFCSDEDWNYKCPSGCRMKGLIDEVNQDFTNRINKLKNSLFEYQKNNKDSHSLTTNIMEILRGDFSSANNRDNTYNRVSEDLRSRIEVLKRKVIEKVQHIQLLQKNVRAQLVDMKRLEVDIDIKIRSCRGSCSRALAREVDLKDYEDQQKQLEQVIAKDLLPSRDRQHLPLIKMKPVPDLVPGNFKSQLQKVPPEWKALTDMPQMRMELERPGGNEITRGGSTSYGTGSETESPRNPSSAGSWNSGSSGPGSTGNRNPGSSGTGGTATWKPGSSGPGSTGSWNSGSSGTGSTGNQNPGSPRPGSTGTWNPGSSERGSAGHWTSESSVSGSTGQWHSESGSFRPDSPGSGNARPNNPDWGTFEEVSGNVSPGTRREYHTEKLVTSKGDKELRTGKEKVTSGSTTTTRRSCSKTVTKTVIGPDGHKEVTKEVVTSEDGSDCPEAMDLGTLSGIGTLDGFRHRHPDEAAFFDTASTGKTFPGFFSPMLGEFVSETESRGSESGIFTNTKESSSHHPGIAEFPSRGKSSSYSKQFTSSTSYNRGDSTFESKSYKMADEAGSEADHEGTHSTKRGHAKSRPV
Sequence of fibrin (P02675 45-491 limits assumed): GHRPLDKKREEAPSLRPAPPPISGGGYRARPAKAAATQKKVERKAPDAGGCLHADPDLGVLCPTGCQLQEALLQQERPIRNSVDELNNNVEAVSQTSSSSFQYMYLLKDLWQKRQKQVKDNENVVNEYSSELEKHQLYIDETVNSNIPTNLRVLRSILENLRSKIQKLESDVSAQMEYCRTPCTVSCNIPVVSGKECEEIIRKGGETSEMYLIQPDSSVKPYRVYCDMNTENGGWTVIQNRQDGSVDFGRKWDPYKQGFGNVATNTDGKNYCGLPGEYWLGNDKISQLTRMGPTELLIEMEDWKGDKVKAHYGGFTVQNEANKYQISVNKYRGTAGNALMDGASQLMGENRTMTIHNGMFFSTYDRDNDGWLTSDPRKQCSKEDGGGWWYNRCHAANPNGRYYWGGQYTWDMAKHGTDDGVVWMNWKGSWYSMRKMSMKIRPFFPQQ
Sequence of fibrin (P02679 27-437 isoform P02679-2 limits assumed): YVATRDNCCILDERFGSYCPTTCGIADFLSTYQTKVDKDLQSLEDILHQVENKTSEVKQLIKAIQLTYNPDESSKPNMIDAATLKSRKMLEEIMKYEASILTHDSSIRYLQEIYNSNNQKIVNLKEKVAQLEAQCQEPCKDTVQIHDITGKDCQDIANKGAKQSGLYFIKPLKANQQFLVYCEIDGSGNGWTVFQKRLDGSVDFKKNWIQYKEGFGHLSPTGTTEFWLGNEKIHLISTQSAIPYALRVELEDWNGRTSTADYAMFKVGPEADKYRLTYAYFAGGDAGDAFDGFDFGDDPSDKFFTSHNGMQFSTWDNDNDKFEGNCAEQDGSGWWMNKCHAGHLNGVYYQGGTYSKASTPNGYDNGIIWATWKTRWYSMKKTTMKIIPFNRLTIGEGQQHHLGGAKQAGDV
Description: FIG. 2 is a urbidity curve of fibrin formation in the presence of different acetate concentrations; and
Referring to FIG. 2, the kinetics of network growth were subsequently investigated by continuously recording changes in turbidity at 608 nm, during network development under identical experimental conditions.

fibrin clot [5] = assay: Supplementation in human males: haemostatic variables and characteristics of fibrin networks developed in plasma; type: in vivo; conditions: for CLOT (FIBRIN): clot fibrin content; for LYSIS TIME (t 50%) / Permeability: clot; for COMPACTION: fibrin clot; for MPC: macromolecular protein complex; for μ,: mass length ratio from turbidity; for FIBRINOGEN: plasma
Protocol: as §1, §2, §3, §4

fibrin clot [6] = target: fibrin clot (Homo sapiens, UniProt P02671+P02675+P02679); conditions: in vitro, n = 5
Sequence of fibrin clot (Homo sapiens, UniProt P02671+P02675+P02679) (P02671 36-629 limits assumed): as the sequence (P02671 36-629 limits assumed) above
Sequence of fibrin clot (Homo sapiens, UniProt P02671+P02675+P02679) (P02675 45-491 limits assumed): as the sequence (P02675 45-491 limits assumed) above
Sequence of fibrin clot (Homo sapiens, UniProt P02671+P02675+P02679) (P02679 27-437 isoform P02679-2 limits assumed): as the sequence (P02679 27-437 isoform P02679-2 limits assumed) above

[7] = Supplementation in human males: metabolic variables; conditions: for ACETATE: acetate level in blood sample; for FFA: free fatty acids; for IR: insulin resistance; for TP: total protein
Protocol: as §1, §2, §3, §4

blood lipids [8] = assay: Supplementation in human males: lipid variables; type: in vivo; conditions: for TC: total cholesterol; for TG: triglycerides
Protocol: as §1, §2, §3, §4

[9] = phase 2, end of supplementation (pectin 15 g/day; calcium acetate 7.5 g/day)

Compound: CC(=O)[O-].CC(=O)[O-].[Ca+2] [ACETATE, calcium acetate]
- % Inhibition (blood lipids [1]; 0.05 mmol/L (50 μM) acetate): 46.97%
- [Hydroperoxide] (blood lipids [1]; 0.05 mmol/L acetate): 4.46 ± 0.15 × 10^−6 M
- % Inhibition (blood lipids [1]; 0.10 mmol/L (100 μM) acetate): 56.01%
- [Hydroperoxide] (blood lipids [1]; 0.10 mmol/L acetate): 3.70 ± 0.22 × 10^−6 M
- % Inhibition (blood lipids [1]; 0.20 mmol/L (200 μM) acetate): 67.11%
- [Hydroperoxide] (blood lipids [1]; 0.20 mmol/L acetate): 3.04 ± 0.23 × 10^−6 M
- % Inhibition (blood lipids [1]; 0.30 mmol/L (300 μM) acetate): 73.12%
- [Hydroperoxide] (blood lipids [1]; 0.30 mmol/L acetate): 2.26 ± 0.16 × 10^−6 M
- minium inhibition: decrease of peroxidation in vitro from linear regression analysis (blood lipids [1]; r=0.98, m=−0.836): 56.12%
- HAEMATOCRIT ([2]; phase 2, baseline): 48.55%
- HAEMOGLOBIN ([2]; phase 2, baseline): 11.12 mmol/L
- HAEMATOCRIT [2, 9]: 46.83 ± %
- HAEMOGLOBIN [2, 9]: 10.48 mmol/L
- VISCOSITY ([2]; phase 2, baseline): 1.92 cP
- VISCOSITY [2, 9]: 1.61 ± cP
- BMI ([3]; phase 2, baseline): 26.90 kg/m^2
- BMI [3, 9]: 25.65 kg/m^2
- BODY WEIGHT ([4]; phase 2, baseline): 88.16 ± 12.35 kg
- BODY WEIGHT ([4]; phase 2, baseline, listed as PLACEBO): 88.16 kg
- decrease in body weight ([4]; phase 2, clinically significant but statistically insignificant): 5.07 kg
- BODY WEIGHT [4, 9]: 83.09 ± 10.80 kg
- BODY WEIGHT ([4]; phase 2, end of supplementation (pectin 15 g/day; calcium acetate 7.5 g/day), listed as PLACEBO): 83.04 kg
- kinetics of network growth (turbidity at 608 nm) (fibrin): enhanced the entire kinetics
- CLOT (FIBRIN) (fibrin clot [5]; phase 2, baseline): 2.00 g/L
- CLOT (FIBRIN) (fibrin clot [5]; [9]): 1.62 ± g/l
- LYSIS TIME (t 50%) (fibrin clot [5]; phase 2, baseline): 251.9
- Permeability (fibrin clot [5]; phase 2, baseline): 212.52 × 10^11 cm^3
- LYSIS TIME (t 50%) (fibrin clot [5]; [9]): 130.3 ±
- Permeability (fibrin clot [5]; [9]): 306.81 ± × 10^11 cm^3
- COMPACTION (fibrin clot [5]; phase 2, baseline): 22.47%
- COMPACTION (fibrin clot [5]; [9]): 32.21 ± %
- MPC (fibrin clot [5]; phase 2, baseline): 0.1146 g/L
- MPC (fibrin clot [5]; [9]): 0.0852 ± g/l
- μ, (fibrin clot [5]; phase 2, baseline): 22.93 Dal/cm × 10^12
- μ, (fibrin clot [5]; [9]): 34.28 ± Dal/cm × 10^12
- decrease in the total plasma fibrinogen concentration (fibrin clot [5]; phase 2, acetate supplementation, not significant): 11.2%
- FIBRINOGEN (fibrin clot [5]; phase 2, baseline): 4.10 g/L
- FIBRINOGEN (fibrin clot [5]; [9]): 3.64 g/L
- Clot [FIBRlN] (fibrin clot [6]; 75 μmol/L acetate): 1.36 ± 0.03 g/L
- Permeability (fibrin clot [6]; 75 μmol/L acetate): 110.4 ± 5.17 × 10^11 cm^2
- μT (fibrin clot [6]; 75 μmol/L acetate): 17.44 ± 0.20 daltons/cm × 10^12
- Clot [FIBRlN] (fibrin clot [6]; 100 μmol/L acetate): 1.37 ± 0.07 g/L
- Permeability (fibrin clot [6]; 100 μmol/L acetate): 118.0 ± 6.03 × 10^11 cm^2
- μT (fibrin clot [6]; 100 μmol/L acetate): 17.95 ± 0.22 daltons/cm × 10^12
- Clot [FIBRlN] (fibrin clot [6]; 150 μmol/L acetate): 1.39 ± 0.05 g/L
- Permeability (fibrin clot [6]; 150 μmol/L acetate): 134.0 ± 5.02 × 10^11 cm^2
- μT (fibrin clot [6]; 150 μmol/L acetate): 19.51 ± 0.17 daltons/cm × 10^12
- ACETATE ([7]; phase 2, baseline): 37.63 µmol/L
- ACETATE [7, 9]: 54.31 ± μmol/l
- FFA ([7]; phase 2, baseline): 0.59 mmol/L
- FFA [7, 9]: 0.45 ± mmol/l
- IR ([7]; phase 2, baseline): 3.22
- IR [7, 9]: 2.93
- ALBUMIN ([7]; phase 2, baseline): 43.09 g/L
- GLUCOSE ([7]; phase 2, baseline): 3.58 mmol/L
- INSULIN ([7]; phase 2, baseline): 8.96 μU/ml
- PPA/ALB ([7]; phase 2, baseline): 13.69 × 10^1
- ALBUMIN [7, 9]: 45.50 g/L
- GLUCOSE [7, 9]: 3.78 mmol/L
- INSULIN [7, 9]: 7.61 μU/ml
- PPA/ALB [7, 9]: 9.89 ± × 10^1
- TP ([7]; phase 2, baseline): 71.69 g/L
- TP [7, 9]: 71.52 g/L
- % HDL-C (blood lipids [8]; phase 2, baseline): 17.04%
- ApoA (blood lipids [8]; phase 2, baseline): 1.50 mmol/L
- ApoB (blood lipids [8]; phase 2, baseline): 1.47 mmol/L
- H2O3 (blood lipids [8]; phase 2, baseline): 1.27 µM
- HDL-C (blood lipids [8]; phase 2, baseline): 1.11 mmol/L
- LDL-C (blood lipids [8]; phase 2, baseline): 4.97 ± mmol/l
- TBARM (blood lipids [8]; phase 2, baseline): 1.47 µM
- % HDL-C (blood lipids [8]; [9]): 20.32 ± %
- ApoA (blood lipids [8]; [9]): 1.40 ± mmol/l
- ApoB (blood lipids [8]; [9]): 1.34 ± mmol/l
- H2O3 (blood lipids [8]; [9]): 0.81 ± μM
- HDL-C (blood lipids [8]; [9]): 1.18 mmol/L
- LDL-C (blood lipids [8]; [9]): 4.20 ± mmol/l
- TBARM (blood lipids [8]; [9]): 1.07 µM
- TC (blood lipids [8]; phase 2, baseline): 6.55 mmol/L
- TC (blood lipids [8]; [9]): 5.81 ± mmol/l
- TG (blood lipids [8]; phase 2, baseline): 0.65 mmol/L
- TG (blood lipids [8]; [9]): 1.33 ± mmol/l
